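Interpolation was linear, between the two tested concentrations surrounding the appropriate level; five concentrations were tested over 48 hours in 96-well plates. GI50 marks 50% less growth. TGI: total growth inhibition.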 Bounds are passed on as bounds.

The text below walks through data of PubChem BioAssay (NCI).

Some test systems named below: CAKI-1 renal; IGROV1 ovarian; HCT-15 colon; SF-539 CNS; SN12C renal; UACC-257 melanoma; MCF7 breast; HOP-62 NSCLC; OVCAR-8 ovarian; HT29 colon.
Test in all cases: NCI tumour cell line growth inhibition, 48 h

For the compound `C[C@H]1[C@H](C)CC[C@]2(C(=O)NCCNCCN)CC[C@]3(C)C(=CC[C@@H]4[C@@]5(C)CCC(=O)C(C)(C)[C@@H]5CC[C@]43C)[C@H]12`, the GI50 was 1.75 µM in the test with CAKI-1 renal; 1.71 µM with IGROV1 ovarian; 1.73 µM in the test on HCT-15 colon; 1.68 µM in the test on SF-539 CNS; 1.61 µM in the test on SN12C renal; 1.84 µM in the test on UACC-257 melanoma. The GI50 with MCF7 breast is 1.7 µM. Besides, the TGI in the test on CAKI-1 renal came out at 4.01 µM; with IGROV1 ovarian, 3.17 µM; with HCT-15 colon, 3.29 µM; in the test with SF-539 CNS it was 3.05 µM; with SN12C renal, 2.98 µM; in the test on UACC-257 melanoma, 3.89 µM. Further, the TGI in the test on MCF7 breast was 3.25 µM.
Turning to `C=C(CN1CCc2ccccc2C1)c1ccc(C(=O)Nc2ccccc2N)cc1`, the GI50 in the test on HOP-62 NSCLC was 1 µM; in the test on CAKI-1 renal it was 1.2 µM; in the test on IGROV1 ovarian, 1.54 µM; with HCT-15 colon, 0.94 µM; in the test with SF-539 CNS, 1.3 µM; in the test on SN12C renal it was 0.978 µM. Also, the GI50 with OVCAR-8 ovarian was 1.09 µM; in the test on UACC-257 melanoma it was 1.55 µM; with MCF7 breast, 2.08 µM. For the same compound, the TGI amounted to 17 µM with HOP-62 NSCLC; 7.69 µM with CAKI-1 renal; 17.6 µM in the test on IGROV1 ovarian; 5.11 µM in the test on HCT-15 colon; 4.28 µM in the test with SF-539 CNS; 5.32 µM with SN12C renal. In addition, the TGI in the test with OVCAR-8 ovarian was 13.8 µM; in the test on UACC-257 melanoma, 16.2 µM; in the test with MCF7 breast, more than 31.6 µM.
In the case of `CC(=O)N[C@H](C(=O)N[C@@H](CCCNC(=N)N)C(=O)N[C@@H](CCCCN)C(=O)N[C@@H](CCCNC(=N)N)C(=O)N[C@]1(C)CCCCCC/C=C\CCC[C@@](C)(C(=O)N[C@@H](CCCNC(=N)N)C(=O)N[C@@H](CCC(=O)O)C(=O)N[C@@H](CC(C)C)C(=O)N[C@H](C(=O)N[C@@H](CCC(=O)O)C(N)=O)C(C)C)NC(=O)[C@H](CCC(N)=O)NC(=O)[C@H](CC(C)C)NC(=O)[C@H](CC(C)C)NC(=O)[C@H](CCCNC(=N)N)NC(=O)[C@H](CCCNC(=N)N)NC(=O)[C@H](CC(C)C)NC1=O)C(C)C`, the GI50 in the test on HOP-62 NSCLC is 2.35 µM; in the test with CAKI-1 renal, 2.06 µM; with HT29 colon, 7.91 µM; with HCT-15 colon, 3.02 µM; in the test with SF-539 CNS, 1.97 µM; in the test on SN12C renal, 2.33 µM. Moreover, the GI50 in the test on OVCAR-8 ovarian is 1.6 µM; with MCF7 breast, 2 µM. Further, the TGI with HOP-62 NSCLC was 22.5 µM; in the test with CAKI-1 renal, 11.7 µM; with HT29 colon, 41.3 µM; in the test with HCT-15 colon, 47.3 µM; in the test on SF-539 CNS, 15.8 µM; in the test on SN12C renal, more than 50 µM. For the same compound, the TGI with OVCAR-8 ovarian was more than 50 µM; with MCF7 breast, 32.9 µM.
As to `Cn1c2ccccc2c2c(=O)c3ccccc3[nH]c21`, the GI50 is 38.9 µM in the test on HOP-62 NSCLC; more than 100 µM with CAKI-1 renal; 54 µM in the test on HT29 colon; 64.3 µM in the test on IGROV1 ovarian; 40.1 µM with HCT-15 colon; 34 µM in the test on SF-539 CNS. For the same compound, the GI50 in the test with SN12C renal was 38.5 µM; in the test on OVCAR-8 ovarian it was more than 100 µM; in the test on MCF7 breast it was 30.3 µM. Moreover, the TGI in the test on HOP-62 NSCLC, in the test with CAKI-1 renal, with HT29 colon, with IGROV1 ovarian, in the test with HCT-15 colon and in the test with SF-539 CNS was more than 100 µM in each case. For the same compound, the TGI in the test on SN12C renal, with OVCAR-8 ovarian and in the test on MCF7 breast was more than 100 µM in each case.
Consider `O=c1c2c3c(sc2n2c(-c4cc(-c5ccccc5)nn4-c4ccccc4)nnc2n1Cc1ccccc1)CCCC3`, for which the GI50 in the test on HOP-62 NSCLC, with CAKI-1 renal, in the test on HCT-15 colon, in the test on SF-539 CNS, with SN12C renal and in the test on UACC-257 melanoma was more than 100 µM each time. The GI50 with MCF7 breast was more than 100 µM. Moreover, the TGI in the test with HOP-62 NSCLC, in the test with CAKI-1 renal, in the test on HCT-15 colon, in the test on SF-539 CNS, in the test on SN12C renal and in the test with UACC-257 melanoma was more than 100 µM each time. In the test on MCF7 breast, this compound returned a TGI of more than 100 µM.
On to `COc1ccc(-c2nnc(N3CCN(C(=O)CN4CCN(c5ccc(OC)cc5)CC4)CC3)nc2-c2ccc(OC)cc2)cc1`, for which the GI50 with HOP-62 NSCLC is 16.5 µM; in the test on CAKI-1 renal it was 15.5 µM; in the test on HT29 colon, 3.39 µM; in the test on IGROV1 ovarian, 6.7 µM; with HCT-15 colon it was 6.96 µM; in the test on SF-539 CNS it was 14.1 µM. The GI50 was 3.2 µM in the test with SN12C renal, 17.5 µM in the test on UACC-257 melanoma and 1.76 µM in the test on MCF7 breast. For the same compound, the TGI in the test on HOP-62 NSCLC was 44 µM; with CAKI-1 renal, 51.1 µM; in the test on HT29 colon it was 10.8 µM; in the test with IGROV1 ovarian, more than 78.6 µM; with HCT-15 colon it was 34.6 µM; in the test on SF-539 CNS, 33.2 µM. The results for the TGI with SN12C renal, in the test on UACC-257 melanoma and in the test on MCF7 breast were 15.5 µM, 39.5 µM and 3.56 µM, respectively.
